By IC50 is commonly meant the concentration that gives 50% inhibition. Usually Ki stands for a measure of affinity in units of concentration, obtained from inhibition or displacement. Read a low Ki as a stronger hold on the target.

Each structure is given as a SMILES string.

These results are taken from paper PMC4757881 (Scientific Reports, 2016).

In assay [1] the target is T1, PPARγ (Homo sapiens, UniProt P37231).
T1 construct: gene PPARG
T1 sequence (P37231 1-505): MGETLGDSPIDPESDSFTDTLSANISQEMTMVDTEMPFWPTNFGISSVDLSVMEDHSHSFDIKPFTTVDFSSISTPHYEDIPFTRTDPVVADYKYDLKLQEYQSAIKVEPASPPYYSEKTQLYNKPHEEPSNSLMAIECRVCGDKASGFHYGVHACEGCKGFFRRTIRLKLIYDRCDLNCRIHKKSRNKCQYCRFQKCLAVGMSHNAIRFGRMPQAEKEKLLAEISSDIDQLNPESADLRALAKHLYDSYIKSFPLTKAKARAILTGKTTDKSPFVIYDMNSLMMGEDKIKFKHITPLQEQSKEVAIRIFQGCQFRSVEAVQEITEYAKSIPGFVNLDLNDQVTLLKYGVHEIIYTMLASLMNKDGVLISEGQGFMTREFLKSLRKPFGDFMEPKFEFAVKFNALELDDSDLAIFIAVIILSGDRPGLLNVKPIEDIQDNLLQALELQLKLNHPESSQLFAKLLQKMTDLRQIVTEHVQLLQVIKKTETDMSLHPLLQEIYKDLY
As to the kind of experiment: fluorescence polarization competition (PolarScreen PPARγ Competitor Assay); GAL4-PPARγ transactivation. It counts as binding. (In fluorescence polarisation assays a small probe gives low polarisation when free and higher when bound to something large.)

The target of assay [2] is T2, CB2 receptor (hCB2) (Homo sapiens, UniProt P34972).
T2 construct: gene CNR2
As to the kind of experiment: radioligand competition ([3H]CP55940) on HEK293 membranes expressing hCB2; agonist in CRE-Luc assay. It counts as binding. (In a radioligand displacement assay an active substance lowers the binding of a labelled ligand.)

T2 sequence (P34972 whole entry): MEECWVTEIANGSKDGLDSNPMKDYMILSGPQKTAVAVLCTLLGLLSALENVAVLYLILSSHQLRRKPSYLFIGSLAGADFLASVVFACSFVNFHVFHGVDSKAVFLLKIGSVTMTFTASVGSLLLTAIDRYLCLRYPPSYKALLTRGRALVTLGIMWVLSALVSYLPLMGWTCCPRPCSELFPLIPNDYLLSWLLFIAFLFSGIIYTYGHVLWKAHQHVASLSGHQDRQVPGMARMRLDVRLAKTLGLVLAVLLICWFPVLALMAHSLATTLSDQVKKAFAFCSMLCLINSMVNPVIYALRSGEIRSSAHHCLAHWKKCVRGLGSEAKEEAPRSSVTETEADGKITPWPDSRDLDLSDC

As for `C=C(C)[C@@H]1CCC(C)=C[C@H]1C1=C(O)C(=O)C(CCCCC)=C(NCc2ccccc2)C1=O` [VCE-004.8], the IC50 in assay [1] came to 1700 nM. The compound also came in with a Ki in assay [2] of 170 ± 50 nM.
